The values below come from patent US8536166B2, “Inhibitors of Burton's tyrosine kinase” (Roche Palo Alto LLC, priority 2008, dated 2013).

The structures appear in SMILES notation.

The target of data set [1] is Btk enzyme (His-tagged, full-length) (Homo sapiens (Human), UniProt Q06187). In words: Bruton's Tyrosine Kinase (Btk) Inhibition Assay. Type of data set: biochemical. Particulars: 33P filtration capture assay, 100 μM ATP, 30 μM biotinylated peptide substrate. The text has this:
The assay is a capture of radioactive ^33P phosphorylated product through filtration. The interactions of Btk, biotinylated SH2 peptide substrate (Src homology), and ATP lead to phosphorylation of the peptide substrate. Biotinylated product is bound streptavidin sepharose beads. All bound, radiolabeled products are detected by scintillation counter.
Plates assayed are 96-well polypropylene (Greiner) and 96-well 1.2 μm hydrophilic PVDF filter plates (Millipore). Concentrations reported here are final assay concentrations: 10-100 μM compounds in DMSO (Burdick and Jackson), 5-10 nM Btk enzyme (His-tagged, full-length), 30 μM peptide substrate (Biotin-Aca-AAAEEIYGEI-NH2), 100 μM ATP (Sigma), 8 mM imidazole (Sigma, pH 7.2), 8 mM glycerol-2-phosphate (Sigma), 200 μM EGTA (Roche Diagnostics), 1 mM MnCl2 (Sigma), 20 mM MgCl2 (Sigma), 0.1 mg/ml BSA (Sigma), 2 mM DTT (Sigma), 1 μCi ^33P ATP (Amersham), 20% streptavidin sepharose beads (Amersham), 50 mM EDTA (Gibco), 2 M NaCl (Gibco), 2 M NaCl w/1% phosphoric acid (Gibco), microscint-20 (Perkin Elmer).
IC50 determinations are calculated from 10 data points per compound utilizing data produced from a standard 96-well plate assay template. One control compound and seven unknown inhibitors were tested on each plate and each plate was run twice. Typically, compounds were diluted in half-log starting at 100 μM and ending at 3 nM. The control compound was staurosporine. Background was counted in the absence of peptide substrate. Total activity was determined in the presence of peptide substrate. The following protocol was used to determine Btk inhibition. • 1) Sample preparation: The test compounds were diluted at half-log increments in assay buffer (imidazole, glycerol-2-phosphate, EGTA, MnCl2, MgCl2, BSA). • 2) Bead preparation • a.) rinse beads by centrifuging at 500 g • b.) reconstitute the beads with PBS and EDTA to produce a 20% bead slurry • 3) Pre-incubate reaction mix without substrate (assay buffer, DTT, ATP, ^33P ATP) and mix with substrate (assay buffer, DTT, ATP, ^33P ATP, peptide substrate) 30° C. for 15 mm. • 4) To start assay, pre-incubate 10 μL Btk in enzyme buffer (imidazole, glycerol-2-phosphate, BSA) and 10 μL of test compounds for 10 min at RT. • 5) Add 30 μL reaction mixture without or with substrate to Btk and compounds. • 6) Incubate 50 μL total assay mix for 30 min at 30° C. • 7) Transfer 40 μL of assay to 150 μL bead slurry in filter plate to stop reaction. • 8) Wash filter plate after 30 min, with following steps • a. 3×250 μL NaCl • b. 3×250 μL NaCl containing 1% phosphoric acid • c. […]

Btk enzyme (His-tagged, full-length), sequence (Q06187 whole entry): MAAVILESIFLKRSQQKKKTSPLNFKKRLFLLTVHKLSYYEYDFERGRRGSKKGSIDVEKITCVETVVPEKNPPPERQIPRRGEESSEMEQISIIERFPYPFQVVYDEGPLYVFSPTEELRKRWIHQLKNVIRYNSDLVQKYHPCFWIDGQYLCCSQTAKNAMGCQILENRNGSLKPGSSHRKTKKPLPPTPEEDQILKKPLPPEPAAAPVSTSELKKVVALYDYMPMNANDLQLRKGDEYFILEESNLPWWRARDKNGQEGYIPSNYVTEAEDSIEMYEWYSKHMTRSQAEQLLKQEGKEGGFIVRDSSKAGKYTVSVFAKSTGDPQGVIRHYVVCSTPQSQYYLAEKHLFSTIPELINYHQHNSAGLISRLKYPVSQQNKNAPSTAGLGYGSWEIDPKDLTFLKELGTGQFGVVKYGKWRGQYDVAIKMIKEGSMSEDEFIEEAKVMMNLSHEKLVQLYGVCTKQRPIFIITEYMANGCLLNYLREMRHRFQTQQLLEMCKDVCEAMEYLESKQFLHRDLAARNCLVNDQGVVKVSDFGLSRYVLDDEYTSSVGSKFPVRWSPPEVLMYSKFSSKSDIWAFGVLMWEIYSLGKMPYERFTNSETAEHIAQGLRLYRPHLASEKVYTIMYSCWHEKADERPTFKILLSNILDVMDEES

For the molecule `CN(C)c1ccc2c(c1)CCN(c1cccc(-c3cn(C)c(=O)c(Nc4ccc5c(c4)OC(F)(F)O5)n3)c1CO)C2=O` [II-1, 2-{3-[6-(2,2-Difluoro-benzo[1,3]dioxol-5-ylamino)-4-methyl-5-oxo-4,5-dihydro-pyrazin-2-yl]-2-hydroxymethyl-phenyl}-6-dimethylamino-3,4-dihydro-2H-isoquinolin-1-one], the melting point – broadly, the temperature, or range, at which the solid turns liquid – is 145 to 150 °C.

Take `Cn1cc(Nc2nc(-c3cccc(N4CCc5cc(C6CC6)ccc5C4=O)c3CO)cn(C)c2=O)cn1` [II-5, 6-Cyclopropyl-2-{2-hydroxymethyl-3-[4-methyl-6-(1-methyl-1H-pyrazol-4-ylamino)-5-oxo-4,5-dihydro-pyrazin-2-yl]-phenyl}-3,4-dihydro-2H-isoquinolin-1-one]: the IC50 (commonly the point on the concentration scale where inhibition reaches its midpoint) in data set [1] came out at 16 nM.

The molecule `CN(C)C(=O)c1ccc(Nc2nc(-c3cccc(N4CCc5cc(C6CC6)ccc5C4=O)c3CO)cn(C)c2=O)cc1` [II-6, 4-{6-[3-(6-Cyclopropyl-1-oxo-3,4-dihydro-1H-isoquinolin-2-yl)-2-hydroxymethyl-phenyl]-4-methyl-3-oxo-3,4-dihydro-pyrazin-2-ylamino}-N,N-dimethyl-benzamide] registered an IC50 in data set [1] of 15 nM.

Consider `Cn1cc(-c2cccc(N3CCc4cc(C5CC5)ccc4C3=O)c2CO)nc(Nc2ccc(C(=O)N3CCCC3)cc2)c1=O` [II-10, 6-Cyclopropyl-2-(2-hydroxymethyl-3-{4-methyl-5-oxo-6-[4-(pyrrolidine-1-carbonyl)-phenylamino]-4,5-dihydro-pyrazin-2-yl}-phenyl)-3,4-dihydro-2H-isoquinolin-1-one], for which the melting point lay in the range of 178 to 180 °C.

`Cn1cc(-c2cccc(N3CCc4cc(C5(F)CC5)ccc4C3=O)c2CO)nc(Nc2ccc(C(=O)N3CCOCC3)cc2)c1=O` [II-11, 6-(1-Fluoro-cyclopropyl)-2-(2-hydroxymethyl-3-{4-methyl-6-[4-(morpholine-4-carbonyl)-phenylamino]-5-oxo-4,5-dihydro-pyrazin-2-yl}-phenyl)-3,4-dihydro-2H-isoquinolin-1-one] displayed a melting point of 172 to 174 °C. Besides, in data set [1], half-maximal inhibition (IC50) was put at 10 nM.

Consider `Cn1cc(-c2cccc(N3CCc4cc(C5CC5)ccc4C3=O)c2CO)nc(Nc2ccc(C(=O)N3CCC(O)CC3)cc2)c1=O` [II-12, 6-Cyclopropyl-2-(2-hydroxymethyl-3-{6-[4-(4-hydroxy-piperidine-1-carbonyl)-phenylamino]-4-methyl-5-oxo-4,5-dihydro-pyrazin-2-yl}-phenyl)-3,4-dihydro-2H-isoquinolin-1-one], for which the melting point fell in the range of 171 to 173 °C. Moreover, the IC50 in data set [1] amounted to 10 nM.

`COC1CCN(C(=O)c2ccc(Nc3nc(-c4cccc(N5CCc6cc(C7CC7)ccc6C5=O)c4CO)cn(C)c3=O)cc2)CC1` [II-13, 6-Cyclopropyl-2-(2-hydroxymethyl-3-{6-[4-(4-methoxy-piperidine-1-carbonyl)-phenylamino]-4-methyl-5-oxo-4,5-dihydro-pyrazin-2-yl}-phenyl)-3,4-dihydro-2H-isoquinolin-1-one] returned a melting point of 146 to 148 °C.

Turning to `CN1CCN(C(=O)c2ccc(Nc3nc(-c4cccc(N5CCc6cc(C7CC7)ccc6C5=O)c4CO)cn(C)c3=O)cc2)CC1` [II-14, 6-Cyclopropyl-2-(2-hydroxymethyl-3-{4-methyl-6-[4-(4-methyl-piperazine-1-carbonyl)-phenylamino]-5-oxo-4,5-dihydro-pyrazin-2-yl}-phenyl)-3,4-dihydro-2H-isoquinolin-1-one], the melting point lay in the range of 172 to 175 °C.

`CN(CCO)C(=O)c1ccc(Nc2nc(-c3cccc(N4CCc5cc(C6CC6)ccc5C4=O)c3CO)cn(C)c2=O)cc1` [II-15, 4-{6-[3-(6-Cyclopropyl-1-oxo-3,4-dihydro-1H-isoquinolin-2-yl)-2-hydroxymethyl-phenyl]-4-methyl-3-oxo-3,4-dihydro-pyrazin-2-ylamino}-N-(2-hydroxy-ethyl)-N-methyl-benzamide] had a melting point of 115 to 117 °C.

`Cn1cc(-c2cccc(N3CCc4cc(C5CC5)ccc4C3=O)c2CO)nc(Nc2ccc(C(=O)N3CCN(CCO)CC3)cc2)c1=O` [II-16, 6-Cyclopropyl-2-[3-(6-{4-[4-(2-hydroxy-ethyl)-piperazine-1-carbonyl]-phenylamino}-4-methyl-5-oxo-4,5-dihydro-pyrazin-2-yl)-2-hydroxymethyl-phenyl]-3,4-dihydro-2H-isoquinolin-1-one]: the melting point lay in the range of 175 to 180.1 °C.

Molecule `CC1CN(C(=O)c2ccc(Nc3nc(-c4cccc(N5CCc6cc(C7CC7)ccc6C5=O)c4CO)cn(C)c3=O)cc2)CC(C)O1` (centres unmarked) [II-17, 6-Cyclopropyl-2-(3-{6-[4-(2,6-dimethyl-morpholine-4-carbonyl)-phenylamino]-4-methyl-5-oxo-4,5-dihydro-pyrazin-2-yl}-2-hydroxymethyl-phenyl)-3,4-dihydro-2H-isoquinolin-1-one] showed a melting point of 173 to 175 °C.

Regarding `CCN1CCN(C(=O)c2ccc(Nc3nc(-c4cccc(N5CCc6cc(C7CC7)ccc6C5=O)c4CO)cn(C)c3=O)cc2)CC1` [II-20, 6-Cyclopropyl-2-(3-{6-[4-(4-ethyl-piperazine-1-carbonyl)-phenylamino]-4-methyl-5-oxo-4,5-dihydro-pyrazin-2-yl}-2-hydroxymethyl-phenyl)-3,4-dihydro-2H-isoquinolin-1-one], the melting point is 153 to 155 °C.
